Here are results for 1 molecule from patent US20100146645A1, “TRANSGENIC ANIMAL MODEL FOR MODELLING PA[…], A METHOD FOR IDENTIFYING COMPOUNDS FOR TREATMENT OF DISEASES OR DISORDERS CAUSED BY PA[…] AND A METHOD FOR USING WFS1 PROTEIN AS A TARGET FOR I[…] COMPOUNDS AGAINST PA[…]” (priority 2006, published 2010).

The subject of assay [1] is Wfs1 −/− mice. The assay is described as follows: Light-dark cage test, vocalization. Type of assay: in vivo, mouse. The settings on record: Wfs1 −/− mice (30% vocalized), anxiolytic dose of diazepam injected. The procedure:
The cage was divided into two: a ⅔ part was lighted and a ⅓ part with darkened cover. The light part was divided into three equal parts, so that the most aversive part was the third part, which is located most distantly from the dark part. Anxious animals preferred to remain mostly in the dark part and avoided the aversive light partition. The experiment was performed one week after the elevated plus-maze experiment and no preliminary isolation of the animals was applied. Lighting level in the light part of the cage was 270 lux.
Namely, the female Wfs1 −/− mice performed 1.5-2 times less entrances to the various parts of the light partition, if compared to the wild type mice (FIG. 7) and the duration of their stay in the light part was twice shorter (FIG. 8). […] In the test cage 30% of the Wfs1 −/− mice vocalized.

In assay [2] the test system is Wfs1 −/− mice. The assay is described as follows: Elevated plus-maze, effect of diazepam on anxiety behaviour and vocalization. Type of assay: in vivo, mouse.

Turning to `CN1C(=O)CN=C(c2ccccc2)c2cc(Cl)ccc21` [diazepam], the “Vocalization in the test cage” value in the assay on Wfs1 −/− mice [1] was “completely removed”. In addition, the “Suppressed exploratory activity and risk behaviour” value in the assay with Wfs1 −/− mice [2] (Wfs1-deficient mice, diazepam 1 mg/kg) is “significantly reduced”. Also, the Stress-induced vocalization entry is “not effective” in the assay with Wfs1 −/− mice [2] (Wfs1 −/− mice, diazepam 0.5 mg/kg) and “removed” in the assay on Wfs1 −/− mice [2] (Wfs1 −/− mice, diazepam 1 mg/kg). In addition, the “Vocalization (share of vocalizing mice)” value in the assay on Wfs1 −/− mice [2] (Wfs1 −/− mice, diazepam group, physiological saline group 24%) turned out to be 0%. The “Time spent on the open arms of the cage” value in the assay with Wfs1 −/− mice [2] (female Wfs1 −/− homozygotes, diazepam 1 mg/kg vs physiological saline, FIG. 4) is “increased”. In the assay on Wfs1 −/− mice [2] (female Wfs1 −/− homozygotes, diazepam 1 mg/kg vs physiological saline, FIG. 5), the “Number of downwards examinations (head dippings) from the open arms” value was “increased”. Besides, the Risk avoidance behaviour result with Wfs1 −/− mice [2] (female Wfs1 −/− homozygotes, diazepam 1 mg/kg vs physiological saline, FIG. 6) is “significantly decreased”.
